ChEMBL document CHEMBL4602670, “Palhinosides A-H: Flavone Glucosidic Truxinate Esters with Neuroprotective Activities from Palhinhaea cernua” (J Nat Prod, 2020)
The source made the active and inactive calls. The calls are words filed in the database; no cut-off is given here.

tested on: HT-22; experiment: Neuroprotective activity against glutamate-induced cell damage in mouse HT22 assessed as increase cell viability at 1.3 to 15 uM after 24 hrs by luminescent cell viability assay; type: functional, cell-based

SMILES	Activity
COC(=O)[C@H]1[C@H](C(=O)OC[C@H]2O[C@@H](Oc3cc(O)c4c(=O)cc(-c5ccc(O[C@@H]6O[C@H](CO)[C@@H](O)[C@H](O)[C@H]6O)cc5)oc4c3)[C@H](O)[C@@H](O)[C@@H]2O)[C@H](c2ccc(O)cc2)[C@H]1c1ccc(O)cc1	Active
COC(=O)[C@H]1[C@@H](C(=O)OC[C@H]2O[C@@H](Oc3cc(O)c4c(=O)cc(-c5ccc(O)cc5)oc4c3)[C@H](O)[C@@H](O)[C@@H]2O)[C@H](c2ccc(O)cc2)[C@@H]1c1ccc(O)cc1	Active
COC(=O)[C@H]1[C@@H](C(=O)OC[C@H]2O[C@@H](Oc3cc(O)c4c(=O)cc(-c5ccc(O[C@@H]6O[C@H](CO)[C@@H](O)[C@H](O)[C@H]6O)cc5)oc4c3)[C@H](O)[C@@H](O)[C@@H]2O)[C@H](c2ccc(O)cc2)[C@@H]1c1ccc(O)cc1	Active
Cc1c(C)c2c(c(C)c1O)CCC(C)(C(=O)O)O2 (stereo not given)	Active
COC(=O)[C@H]1[C@H](C(=O)OC[C@H]2O[C@@H](Oc3cc(O)c4c(=O)cc(-c5ccc(O)cc5)oc4c3)[C@H](O)[C@@H](O)[C@@H]2O)[C@H](c2ccc(O)cc2)[C@H]1c1ccc(O)cc1	Active

tested on: HT-22; experiment: Neuroprotective activity in mouse HT22 assessed as decrease in glutamate-induced ROS generation preincubated for 8 hrs followed by addition of 2,7-dichlorofluorescein diacetate and measured after 30 mins by fluorescence based assay; type: functional, cell-based

SMILES	Activity
COC(=O)[C@H]1[C@@H](C(=O)OC[C@H]2O[C@@H](Oc3cc(O)c4c(=O)cc(-c5ccc(O)cc5)oc4c3)[C@H](O)[C@@H](O)[C@@H]2O)[C@H](c2ccc(O)cc2)[C@@H]1c1ccc(O)cc1	Dose-dependent effect

tested on: HT-22; experiment: Neuroprotective activity against glutamate-induced cell damage in mouse HT22 assessed as increase cell viability at 0.6 to 15 uM after 24 hrs by luminescent cell viability assay; type: functional, cell-based

SMILES	Activity
O=C(OC[C@H]1O[C@@H](Oc2cc(O)c3c(=O)cc(-c4ccc(O[C@H]5O[C@@H](CO)[C@H](O)[C@@H](O)[C@@H]5O)cc4)oc3c2)[C@H](O)[C@@H](O)[C@@H]1O)[C@H]1[C@H](C(=O)OC[C@H]2O[C@@H](Oc3cc(O)c4c(=O)cc(-c5ccc(O[C@H]6O[C@@H](CO)[C@H](O)[C@@H](O)[C@@H]6O)cc5)oc4c3)[C@H](O)[C@@H](O)[C@@H]2O)[C@H](c2ccc(O)cc2)[C@H]1c1ccc(O)cc1	inactive
O=C(OC[C@H]1O[C@@H](Oc2cc(O)c3c(=O)cc(-c4ccc(O)cc4)oc3c2)[C@H](O)[C@@H](O)[C@@H]1O)[C@H]1[C@H](C(=O)OC[C@H]2O[C@@H](Oc3cc(O)c4c(=O)cc(-c5ccc(O[C@H]6O[C@@H](CO)[C@H](O)[C@@H](O)[C@@H]6O)cc5)oc4c3)[C@H](O)[C@@H](O)[C@@H]2O)[C@H](c2ccc(O)cc2)[C@H]1c1ccc(O)cc1	inactive
O=C(OC[C@H]1O[C@@H](Oc2cc(O)c3c(=O)cc(-c4ccc(O[C@H]5O[C@@H](CO)[C@H](O)[C@@H](O)[C@@H]5O)cc4)oc3c2)[C@H](O)[C@@H](O)[C@@H]1O)[C@@H]1[C@H](C(=O)OC[C@H]2O[C@@H](Oc3cc(O)c4c(=O)cc(-c5ccc(O)cc5)oc4c3)[C@H](O)[C@@H](O)[C@@H]2O)[C@@H](c2ccc(O)cc2)[C@H]1c1ccc(O)cc1	inactive
O=C(OC[C@H]1O[C@@H](Oc2cc(O)c3c(=O)cc(-c4ccc(O)cc4)oc3c2)[C@H](O)[C@@H](O)[C@@H]1O)[C@@H]1[C@H](C(=O)OC[C@H]2O[C@@H](Oc3cc(O)c4c(=O)cc(-c5ccc(O)cc5)oc4c3)[C@H](O)[C@@H](O)[C@@H]2O)[C@@H](c2ccc(O)cc2)[C@H]1c1ccc(O)cc1	inactive
